The text below walks through data of patent US11072616B2, “Cyclic peptides targeting alpha-4-beta-7 integrin” (Zealand Pharma A/S, priority 2015, dated 2021).

Like-named read-outs stand apart in the source and are kept apart here.

The conditions of data set [1]: mouse, in vivo.
Experimental: (§1) Oral bioavailability of test compounds was conducted by assessing plasma exposure of following one or two oral doses in mice and, in some cases, comparing said plasma exposure with that following a single intravenous dose of the same compound.
(§2) Body weights were recorded on the day of dosing.
(§3) Dosing: The formulation containing the test compound were administered p.o. by gavage with disposable feeding needles.
(§4) Sample processing/storage: All blood samples were transferred into K2EDTA tubes on wet ice and centrifuged within 5 min (3200×g for 5 min at 4° C.) to obtain plasma. Samples were stored frozen at −80° C. until bioanalysis.
(§5) Instrumentation: AB Sciex API 4000 Q-TRAP MS/MS system equipped with an Agilent LC system with a binary pump, a solvent degasser, a thermostatted column compartment, a CTC autosampler and a divert valve installed between the column and mass spectrometer inlet.
Data set [2] relates to CD3+CD4+α4β7+ T lymphocytes. The experiment in a line: FACS analysis of T lymphocyte populations, 8-day DSS study. In kind it is in vivo, C57Bl/6 mice. The source says:
Collection of samples. On Day 8, five hours after ET02451-01, ET02452-01 and vehicle dosing, the animals were euthanized by cardiac puncture under general anesthesia, according to the “Guide to the Care and Use of Experimental Animals” published by the CCAC. Blood was transferred in a Sarstedt tube containing EDTA. Mesenteric and peripheral (inguinal, auxiliary and brachial) lymph nodes were collected and transferred on ice in corresponding tubes containing cold PBS. Nodes were kept on ice until tissue preparation.
Cell population labeling. Blood was withdrawn by cardiac puncture and collected on EDTA-coated tubes. Mensenteric lymph nodes (MLN) and peripheral lymph nodes (PLN) were also collected. Mononuclear cells from the tissues will be isolated using density gradient (Lympholyte) and they were stained with fluorescent antibodies. […] After washes, cells were fixed using BD Fix Solution. Percentage of different subpopulations of T lymphocytes were then analysed using FACSCalibur cytometer. Antibodies employed were the same as listed for the single-dose PD studies above.

Another data set has as its system DSS-treated mice. The experiment in a line: 8-day efficacy study in DSS model (therapeutic) of ulcerative colitis. In kind it is in vivo, C57Bl/6 mice. The note with it: for reduction of DAI score: Day 8 vs DSS+vehicle; for reduction of lesion length: vs control vehicle treated-group. As for the experimental part: Animals. Female C57Bl/6 mice (Charles River, St-Constant, Qc), weighting 16-19 g at delivery were used for this study. Following arrival in the animal facility, all animals were subjected to a general health evaluation. An acclimation period of 7-14 days was allowed before the beginning of the study.
Oral dosing of the test article and the vehicle. From Day 5 to Day 8, nacellins and the vehicle were administered as a single slow bolus (over approximately 5 seconds) via oral route (p.o.), according to the procedure of administration of solution by gavage: the animal was firmly restrained. A bulb-tipped gastric gavage needle of 22G was passed through the side of the mouth and was advanced towards the oesophagus. The test articles and the vehicle were dosed orally at 5 mL/kg.
Intraperitoneal dosing of the test articles and the vehicle. On day 5, DATK32 antibody was administered in only on Day 5, as a single slow bolus (over approximately 5 seconds) via the i.p. route. […] Intraperitoneal administration was performed accordingly to the following procedure: the mouse was restrained manually and held with the head and body tilted downward. The tip of the needle (27 G) was inserted through the skin and just past the abdominal wall. A short pull back of the plunger of the syringe was done prior to administration of the solution to make sure that the syringe was not inserted in any abdominal organ (fluid would be pulled back into the syringe in this case).
Inflammation Score. Once the mouse was euthanized, the colon was collected and its length was measured. Lesion length was also measured. Colon inflammation was scored based on severity of oedema and ulceration.
Disease Activity Index (DAI) assessment. Body weight and DAI were measured on Day 5 in order to distribute DSS-treated animals in two uniform groups prior dosing. Specific symptoms associated to UC were scored based on the severity of each particular symptoms: 1—blood in stool (negative hemoccult, positive hemoccult, blood traces in stool visible, rectal bleeding); 2—stool consistency (normal, soft but still formed, very soft, diarrhea); 3—posture and fur (normal; ruffled fur; ruffled fur combined to slight hunched posture and slight dehydration; ruffled fur combined to hunched posture, dehydration and altered walking; moribund (euthanasia is mandatory before the animal reach this point). The overall DAI score was the sum of the three parameters (maximum score 9). Body weight measurement and DAI assessment were performed also on Day 8 to evaluate the effect of the treatments.

Data set [3] is described as follows: In vivo pharmacokinetic assessment, colon. Also on record: species or system CD-1 mice. The note with it: for tmax: colon, naïve mice.
Data set [4] in a line: In vivo pharmacokinetic assessment, liver. On the set-up: species or system CD-1 mice. The source says: In Vivo Pharmacokinetic Assessments in Rodents
The livers will be blotted and weighed.

Data set [5] is described as follows: In vivo pharmacokinetic assessment, plasma. The note with it: naïve mice.
Experimental: as §1, §2, §3, §4, §5

On to `CC(C)C[C@@H]1NC(=O)c2ccc(-c3ccnc4ccccc34)c(c2)CNC(=O)[C@@H]2CCCN2[C@H](C(=O)NC(C)(C)C)[C@H](C)NC(=O)[C@H]([C@@H](C)O)NC(=O)[C@H](CC(=O)O)NC1=O` [ET02452], for which the “oral bioavailability / absorption (in words)” value in data set [1] (po) is recorded as “low oral bioavailability”. The “CD3+CD4+α4β7+ cell population in mesenteric lymph nodes” value in data set [2] (i.p.: ET02452 65 mg/kg, DATK32 15 mg/kg) is given as “significant decrease”. In addition, the “reduction of DAI score” value in the data set on DSS-treated mice (i.p.: ET02452-01 65 mg/kg Day 5-8, DATK32 15 mg/kg Day 5) is on record as 46%; with DSS-treated mice (oral 40 mg/kg, Day 5 to Day 8), “did not have any beneficial effect”. Further, the “reduction of lesion length” value in the data set with DSS-treated mice (i.p.: ET02452-01 65 mg/kg, DATK32 15 mg/kg Day 5) came out at 20%; in the data set on DSS-treated mice (oral 40 mg/kg) it was 53%.

`CC(C)C[C@@H]1NC(=O)c2ccc(-c3ccc(N4CCNCC4)cc3)c(c2)CNC(=O)[C@@H]2CCCN2[C@H](C(=O)NC(C)(C)C)[C@H](C)NC(=O)[C@H]([C@@H](C)O)NC(=O)[C@H](CC(=O)O)NC1=O` [ET02451]: the tmax was 2.00 h in data set [3] (single i.v. 5 mg/kg); 2.00 h in data set [3] (single p.o. 40 mg/kg); 0.0833 h in data set [4] (liver, single i.v. 5 mg/kg, naïve mice); 2.00 h in data set [4] (mouse, in vivo, po, 40 mg/kg); 4.98 min in data set [5] (single i.v. 5 mg/kg). In addition, in data set [3] (mouse, in vivo), the “oral bioavailability in colon” value was approximately 100%. Further, the AUC0-inf in data set [3] (mouse, in vivo, iv, 5 mg/kg) worked out at 17140 ng·h/mL; in data set [3] (mouse, in vivo, po, 40 mg/kg) it was 145327 ng·h/mL; in data set [4] (mouse, in vivo, iv, 5 mg/kg), 8460 ng·h/mL; in data set [4] (mouse, in vivo, po, 40 mg/kg) it was 6054 ng·h/mL. Moreover, the AUC0-tlast turned out to be 17109 ng·h/mL in data set [3] (mouse, in vivo, iv, 5 mg/kg); 130746 ng·h/mL in data set [3] (mouse, in vivo, po, 40 mg/kg); 8289 ng·h/mL in data set [4] (mouse, in vivo, iv, 5 mg/kg); 6024 ng·h/mL in data set [4] (mouse, in vivo, po, 40 mg/kg). Besides, the MRT0-inf in data set [3] (mouse, in vivo, iv, 5 mg/kg) is listed as 3.43 h; in data set [3] (mouse, in vivo, po, 40 mg/kg), 4.59 h; in data set [4] (mouse, in vivo, iv, 5 mg/kg) it was 2.00 h; in data set [4] (mouse, in vivo, po, 40 mg/kg), 2.11 h. For the same compound, the half-life in colon entry in data set [3] (mouse, in vivo, po) is “greater than 21 hours”. Further, the F in data set [1] (iv, 5 mg/kg) was determined as 100%; in data set [1] (po, 40 mg/kg), 11.0%. Further, the “elimination half-life in plasma” value in data set [1] (po) is approximately 0.5 h. Besides, the “oral bioavailability / absorption (in words)” value in data set [1] (po) was “significant absorption from the gut and systemic exposure following oral dosing”. Besides, the AUC0-tiast amounted to 686 ng·h/mL in data set [1] (po, 40 mg/kg) and 778 ng·h/mL in data set [5] (single i.v. 5 mg/kg). Besides, in data set [4] (mouse, in vivo), the “bioavailability in the liver” value was approximately 8%. Besides, the “main route of elimination” value in data set [4] (mouse, in vivo) is “hepatobiliary clearance”. The compound further registered a half-life in liver in data set [4] (mouse, in vivo, po) of approximately 8 h. Moreover, the Cmax in data set [5] (single p.o. 40 mg/kg) was found to be 4638 ng/mL. Moreover, in data set [2] (p.o. 40 mg/kg), the “CD3+CD4+α4β7+ cell population in mesenteric lymph nodes” value is “significant decrease”. The “reduction of DAI score” value in the data set with DSS-treated mice (oral 40 mg/kg, Day 5 to Day 8) is 15%. The lesion/colon length with DSS-treated mice (oral 40 mg/kg, vehicle group 40%) was 12%. For the same compound, the “reduction of lesion length” value with DSS-treated mice (oral 40 mg/kg) was “significantly reduced the lesion length”.
